Test results as given in US10815197B2, “N-sulfonyl benzamides as voltage-gated sodium channel inhibitors” (SHANGHAI HAIYAN PHARMACEUTICAL TECHNOLOGY CO., LTD., priority 2016, dated 2020).
Read-outs that look alike come from different tables or passages of the source.

Target: T1, hNav1.7 (Homo sapiens, UniProt Q15858)
T1 construct: host or cells: CHO
Assay: Manual patch clamp experiment hNav1.7 (CHO-hNav1.7 stable cell line)
Assay type: cell-based
Conditions: for inhibitory activity against Nav1.7 (in words): comparison from Table 1; for inhibition at 0.1 µM: read-out: Inhibition of Nav1.7 100 nM(%); for inhibition at 1 µM: read-out: Inhibition of Nav1.7 1000 nM(%)
Excerpt: Assay 1: Manual Patch Clamp Experiment of Sodium Ion (hNav1.7, hNav1.5 and hNaV1.8) and Calcium Ion (hCav3.2) Channels
hNav1.7, hNav1.5 Manual Patch Clamp Experiment:
Patch voltage clamp electrophysiology allows for the direct measurement and quantification of current block of voltage-gated sodium channels (NaV's), and allows the determination of the time and voltage-dependence of block which has been interpreted as differential binding to the resting, open and inactivated states of the sodium channel to reflect the compound's inhibitory or activating effects (Hille, B., Journal of General Physiology (1977), 69: 497-515).
Representative compounds of the present invention were subject to a manual patch clamp experiment and the purpose of this study was to test the effect of compounds on this ion channel current on a stable cell line transfected with a specific ion channel using a manual patch clamp method. The used stable cell lines CHO-hNav1.7 and HEK-hNav1.5 were from Genionics and WuXi Apptec (Shanghai) respectively.
Manual patch clamp experimental program is as follows:
(1) Preparation of solutions and compounds: The whole cell patch clamp technique was used to record hNav1.7 and hNav1.5 currents. In the experiment, the composition of extracellular fluid (mM): HEPES: 5, NaCl: 40, KCl: CaCl2: 1, MgCl2: 1, CdCl2: 0.1, TEA-Cl: 20. The pH was adjusted to 7.3 with NaOH and the osmotic pressure was adjusted to 310-320 mOsm with sucrose, filtered and stored at 4° C. The composition of the intracellular fluid (mM): HEPES: 10, NaCl: 10, CsOH: 5, CsF: 140, EGTA: 1. The pH was adjusted to 7.3 with CsOH and the osmotic pressure was adjusted to 280-290 mOsm with sucrose, filtered and stored at −20° C.
The positive control and the test compound were firstly dissolved in 100% DMSO (Sigma-Aldrich, D2650), configured as stock solution at a concentration (100 nM, 1000 nM).) The above stock solution was serially diluted with DMSO prior to the experiment, the solution was further diluted with extracellular solution to obtain the test solution of the desired concentration.
(2) Manual Patch Clamp Experiment: The cell suspension was added to a 35 mm petri dish and placed on an inverted microscope stage. The cells were perfused with an extracellular fluid and the flow rate was 1-2 mL/min after cell adherence. The glass microelectrode was prepared in two steps by a microelectrode puller with an inlet water resistance of 2-5 MΩ. A/D-D/A digital-analog conversion was performed by Digidata 1440 (Molecular Devices) and pCLAMP software (version 10.2, Molecular Devices) for stimulation and signal acquisition; the signal was amplified by patch clamp amplifier (Multiclamp 700B, Molecular Devices), and filtering is 4 KHz.
Two different voltage stimulation procedures were used in the hNav1.7 and hNav1.5 manual patch clamp experiments.
One is the inactivation stimulation program, the clamp potential is set at V1/2 of the corresponding channel, i.e., about 50% of the channels are inactivated, then the voltage is applied to −120 mV for 50 ms, then depolarized to −10 mV for 20 ms leading to sodium current, and finally returned to the clamp potential. This stimulation program can also be called channel state-dependent voltage stimulation program.
The other is the non-inactivation stimulation program, the clamp potential is maintained at −120 mV, voltage stimulation is given to −10 mV for 20 ms leading to sodium current, and finally returned to the clamp potential. That is, all channels have not experienced inactivation status, but activate directly from the resting state under the conditions of the stimulation program.
The time intervals of these two voltage stimulation programs were 10 s. The inhibitory effect of the compound was calculated by the change of the current before and after dosing, the IC50 value was fitted by the Hill equation.

T1 sequence (Q15858 whole entry): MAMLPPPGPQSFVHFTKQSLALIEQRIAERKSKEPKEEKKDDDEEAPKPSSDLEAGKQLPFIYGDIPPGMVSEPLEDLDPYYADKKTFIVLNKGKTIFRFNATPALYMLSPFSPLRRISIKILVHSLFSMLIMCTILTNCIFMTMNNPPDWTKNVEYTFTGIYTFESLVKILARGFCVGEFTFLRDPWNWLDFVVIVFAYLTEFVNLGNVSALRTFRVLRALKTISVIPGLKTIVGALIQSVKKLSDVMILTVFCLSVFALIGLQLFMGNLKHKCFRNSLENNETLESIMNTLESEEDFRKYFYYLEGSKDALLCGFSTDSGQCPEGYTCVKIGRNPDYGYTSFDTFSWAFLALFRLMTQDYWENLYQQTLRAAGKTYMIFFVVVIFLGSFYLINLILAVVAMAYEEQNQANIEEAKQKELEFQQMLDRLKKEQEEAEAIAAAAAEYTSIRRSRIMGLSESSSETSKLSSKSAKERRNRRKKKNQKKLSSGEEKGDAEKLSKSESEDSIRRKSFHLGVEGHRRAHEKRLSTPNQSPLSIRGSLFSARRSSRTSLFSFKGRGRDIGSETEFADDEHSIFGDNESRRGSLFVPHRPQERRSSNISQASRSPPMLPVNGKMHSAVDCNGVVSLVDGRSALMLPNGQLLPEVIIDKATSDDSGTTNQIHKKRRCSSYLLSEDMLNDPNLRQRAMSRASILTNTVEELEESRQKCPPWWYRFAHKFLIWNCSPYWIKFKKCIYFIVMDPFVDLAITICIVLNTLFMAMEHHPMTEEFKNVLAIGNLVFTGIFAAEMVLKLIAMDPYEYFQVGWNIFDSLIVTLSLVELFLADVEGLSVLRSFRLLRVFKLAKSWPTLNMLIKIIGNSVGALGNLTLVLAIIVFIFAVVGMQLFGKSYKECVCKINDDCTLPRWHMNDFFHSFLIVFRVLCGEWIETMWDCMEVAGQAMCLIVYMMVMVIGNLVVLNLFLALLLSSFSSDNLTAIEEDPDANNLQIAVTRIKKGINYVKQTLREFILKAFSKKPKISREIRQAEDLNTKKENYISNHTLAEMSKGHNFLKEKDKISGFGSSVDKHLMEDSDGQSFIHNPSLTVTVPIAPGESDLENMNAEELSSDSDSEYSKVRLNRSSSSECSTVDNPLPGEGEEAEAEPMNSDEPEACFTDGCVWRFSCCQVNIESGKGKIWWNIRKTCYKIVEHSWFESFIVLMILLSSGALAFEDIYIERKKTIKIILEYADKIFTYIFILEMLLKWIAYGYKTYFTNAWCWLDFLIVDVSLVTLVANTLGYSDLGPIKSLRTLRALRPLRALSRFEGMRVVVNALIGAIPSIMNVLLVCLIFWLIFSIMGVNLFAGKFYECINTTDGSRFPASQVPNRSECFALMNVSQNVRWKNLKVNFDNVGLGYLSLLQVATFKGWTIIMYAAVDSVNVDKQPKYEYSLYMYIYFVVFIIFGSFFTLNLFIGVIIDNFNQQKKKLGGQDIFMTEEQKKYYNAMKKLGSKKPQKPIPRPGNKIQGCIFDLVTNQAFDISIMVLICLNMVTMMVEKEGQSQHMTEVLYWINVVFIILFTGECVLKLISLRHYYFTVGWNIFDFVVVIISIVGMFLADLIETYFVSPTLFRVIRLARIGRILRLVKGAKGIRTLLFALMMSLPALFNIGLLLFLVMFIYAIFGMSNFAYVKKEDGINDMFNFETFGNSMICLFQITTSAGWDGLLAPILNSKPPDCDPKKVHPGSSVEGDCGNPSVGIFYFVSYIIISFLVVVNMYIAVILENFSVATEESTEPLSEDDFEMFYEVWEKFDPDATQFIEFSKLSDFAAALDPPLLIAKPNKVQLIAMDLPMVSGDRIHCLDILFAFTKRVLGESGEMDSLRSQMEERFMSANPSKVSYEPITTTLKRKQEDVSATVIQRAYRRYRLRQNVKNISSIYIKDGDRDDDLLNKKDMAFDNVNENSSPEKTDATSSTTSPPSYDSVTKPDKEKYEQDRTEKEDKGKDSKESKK

O=C(NS(=O)(=O)C1CC1)c1cc(C2CC2)c(CN2CCN(Cc3cc(Cl)cc(Cl)c3)CC2)cc1F [Compound C1, reference compound]
inhibitory activity against Nav1.7 (in words): significantly reduced | inhibition at 0.1 µM: 52% | inhibition at 1 µM: 64%

CS(=O)(=O)NC(=O)c1cc(C2CC2)c(CN2CCN(Cc3ccc(Cl)c(Cl)c3)CC2)cc1F [Compound C2, reference compound]
inhibitory activity against Nav1.7 (in words): significantly reduced | inhibition at 0.1 µM (compound at 100 nM): 49.2% | inhibition at 1 µM (compound at 1000 nM): 64.8%

Cc1cc(C(=O)N2CCN(Cc3cc(F)c(C(=O)NS(=O)(=O)C4CC4)cc3Cl)CC2)ccc1Cl [Compound C3, reference compound]
inhibition at 0.1 µM (compound at 100 nM): 17.6% | inhibition at 1 µM (compound at 1000 nM): 52.3%

Cc1cc(CN2CCN(Cc3cc(F)c(C(=O)NS(=O)(=O)C4CC4)cc3Cl)CC2)ccc1Cl [Compound C4, 5-chloro-4-((4-(4-chloro-3-methylbenzyl)piperazin-1-yl)methyl)-N-(cyclopropylsulfonyl)-2-fluorobenzamide, reference compound]
inhibitory activity against Nav1.7 (in words): significantly reduced | inhibition at 0.1 µM (compound at 100 nM): 18.6% | inhibition at 1 µM (compound at 1000 nM): 58.9%

O=C(NS(=O)(=O)C1CC1)c1cc(Cl)c(CN2CCN(C(=O)c3ccc(Cl)cc3)CC2)cc1F [Compound C5, reference compound]
inhibition at 0.1 µM (compound at 100 nM): 17.2% | inhibition at 1 µM (compound at 1000 nM): 36.8%

O=C(NS(=O)(=O)C1CC1)c1cc(Cl)c(CN2CCN(Cc3ccc(Cl)cc3)CC2)cc1F [Compound C6, reference compound]
inhibition at 0.1 µM (compound at 100 nM): 11.2% | inhibition at 1 µM (compound at 1000 nM): 57.2%

O=C(NS(=O)(=O)C1CC1)c1cc(Cl)c(OC[C@H]2CCCN2Cc2ccc(Cl)cc2)cc1F [Compound C7, (R)-5-chloro-4-((1-(4-chlorobenzyl)pyrrolidin-2-yl)methoxy)-N-(cyclopropylsulfonyl), reference compound]
inhibition at 0.1 µM: 31.1% | inhibition at 1 µM: 67.5%

O=C(NS(=O)(=O)C1CC1)c1cc(Cl)c(OC[C@H]2CCCN2Cc2ccc(C(F)(F)F)cc2)cc1F [Compound C8, (R)-5-chloro-N-(cyclopropylsulfonyl)-2-fluoro-4-((1-(4-(trifluoromethyl)benzyl)pyrrolidin-2-yl)methoxy), reference compound]
inhibition at 0.1 µM (compound at 100 nM): 47% | inhibition at 1 µM (compound at 1000 nM): 66.8%

O=C(NS(=O)(=O)C1CC1)c1cc(Cl)c(OC[C@H]2CCCN2C(=O)c2ccc(Cl)cc2)cc1F [Compound C9, (R)-5-chloro-4-((1-(4-chlorobenzoyl)pyrrolidin-2-yl)methoxy)-N-(cyclopropylsulfonyl), reference compound]
inhibition at 0.1 µM (compound at 100 nM): 5.49% | inhibition at 1 µM (compound at 1000 nM): 29.1%

O=C(NS(=O)(=O)C1CC1)c1cc(Cl)c(OC[C@H]2CCCN2C(=O)c2ccc(C(F)(F)F)cc2)cc1F [Compound C10, (R)-5-chloro-N-(cyclopropylsulfonyl)-2-fluoro-4-((1-(4-(trifluoromethyl)benzoyl)pyrrolidin-2-yl)methoxy), reference compound]
inhibition at 0.1 µM (compound at 100 nM): 7.83% | inhibition at 1 µM (compound at 1000 nM): 24.7%

CS(=O)(=O)NC(=O)c1cc(C2CC2)c(CN2CCN(Cc3cc(Cl)cc(Cl)c3)CC2)cc1F [Compound C11, reference compound]
inhibitory activity against Nav1.7 (in words): significantly reduced | inhibition at 0.1 µM (compound at 100 nM): 23.1% | inhibition at 1 µM (compound at 1000 nM): 51.9%

O=C(NS(=O)(=O)C1CC1)c1cc(C2CC2)c(OC[C@H]2CCCN2c2ccc(C(F)(F)F)cn2)cc1F [Compound Z-142, (R)-5-cyclopropyl-N-(cyclopropylsulfonyl)-2-fluoro-4-((1-(5-(trifluoromethyl)pyridin-2-yl)pyrrolidin-2-yl)methoxy)benzamide]
inhibition at 0.1 µM (compound at 100 nM): 92.2% | inhibition at 1 µM (compound at 1000 nM): 97.8%

O=C(NS(=O)(=O)C1CC1)c1cc(Cl)c(OC[C@H]2CCCN2c2ccc(C(F)(F)F)cn2)cc1F [Compound Z-150, (R)-5-chloro-N-(cyclopropylsulfonyl)-2-fluoro-4-((1-(5-(trifluoromethyl)pyridin-2-yl)pyrrolidin-2-yl)methoxy)benzamide]
inhibition at 0.1 µM (compound at 100 nM): 93.3% | inhibition at 1 µM (compound at 1000 nM): 96.7%

O=C(NS(=O)(=O)C1CC1)c1cc(Cl)c(CN2CCN(c3ccc(C(F)(F)F)cc3)CC2)cc1F [Compound Z-174]
inhibition at 0.1 µM (compound at 100 nM): 78% | inhibition at 1 µM (compound at 1000 nM): 95.1%

Cc1cc(N2CCN(Cc3cc(F)c(C(=O)NS(=O)(=O)C4CC4)cc3Cl)CC2)cc(C)c1F [Compound Z-180]
inhibition at 0.1 µM (compound at 100 nM): 70.4% | inhibition at 1 µM (compound at 1000 nM): 97.8%

Cc1c(F)c(F)cc(N2CCN(Cc3cc(F)c(C(=O)NS(=O)(=O)C4CC4)cc3Cl)CC2)c1F [Compound Z-182]
inhibition at 0.1 µM (compound at 100 nM): 77.2% | inhibition at 1 µM (compound at 1000 nM): 97.6%

Cc1c(F)ccc(N2CCN(Cc3cc(F)c(C(=O)NS(=O)(=O)C4CC4)cc3Cl)CC2)c1Cl [Compound Z-184]
inhibition at 0.1 µM (compound at 100 nM): 70.3% | inhibition at 1 µM (compound at 1000 nM): 98.5%

Cc1cc(N2CCN(Cc3cc(F)c(C(=O)NS(=O)(=O)C4CC4)cc3Cl)CC2)cc(C)c1Cl [Compound Z-185]
inhibition at 0.1 µM (compound at 100 nM): 85.3% | inhibition at 1 µM (compound at 1000 nM): 94.9%

Cc1c(Cl)ccc(N2CCN(Cc3cc(F)c(C(=O)NS(=O)(=O)C4CC4)cc3Cl)CC2)c1F [Compound Z-188]
inhibition at 0.1 µM (compound at 100 nM): 81.8% | inhibition at 1 µM (compound at 1000 nM): 98.1%

CCc1cc(C(=O)NS(=O)(=O)C2CC2)c(F)cc1CN1CCN(c2ccc(Cl)c(Cl)c2)CC1 [Compound Z-191]
inhibition at 0.1 µM (compound at 100 nM): 73.3% | inhibition at 1 µM (compound at 1000 nM): 95%

CCc1cc(C(=O)NS(=O)(=O)C2CC2)c(F)cc1CN1CCN(c2cc(Cl)cc(Cl)c2)CC1 [Compound Z-192]
inhibition at 0.1 µM (compound at 100 nM): 77.7% | inhibition at 1 µM (compound at 1000 nM): 98.4%

CCc1cc(C(=O)NS(=O)(=O)C2CC2)c(F)cc1CN1CCN(c2ccc(Cl)c(F)c2)CC1 [Compound Z-193]
inhibition at 0.1 µM (compound at 100 nM): 72.6% | inhibition at 1 µM (compound at 1000 nM): 95.7%

O=C(NS(=O)(=O)C1CC1)c1cc(C2CC2)c(CN2CCN(c3cc(Cl)cc(Cl)c3)CC2)cc1F [Compound Z-197]
inhibition at 0.1 µM: 83.6% | inhibition at 1 µM: 100%

(cyclopropylsulfonyl)-4-((4-(3,4-dichlorophenyl) piperazin-1-yl)methyl)-2-fluorobenzamide [Compound Z-196]
Inhibition of Nav1.7 100 nM(%) (compound at 100 nM): 85.03% | Inhibition of Nav1.7 1000 nM(%) (compound at 1000 nM): 93.02%
